# Assay results published in patent US20240059703A1 (AMGEN INC., priority 2021, published 2024).
# Experiments:
# [1] = system: A549 (human lung carcinoma) cells; experiment: Cell Viability Assay (CellTiter-Glo), A549; format: cell-based; conditions: Homo sapiens, A549, 72 h
# How it was run: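 After a 72 h exposure to serial compound dilutions at 37° C, luminescent ATP content was measured with CellTiter-Glo. The cells were A549 or MIA PaCa-2, seeded at 1.67E+04 cells/mL in RPMI 1640 with 10% serum. Signals were normalized to DMSO controls and IC50 fitted with a 4-parameter logistic model.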
# [2] = system: MIA PaCa-2 (human pancreatic carcinoma) cells; experiment: Cell Viability Assay (CellTiter-Glo), MIA PaCa-2; format: cell-based; conditions: Homo sapiens, MIA PaCa-2, 72 h
# Experimental: Serially-diluted compound or DMSO was added to the cells, and plates were incubated at 37° C., 5% CO2 for 72 h. Cell viability was measured using a CellTiter-Glo® Luminescent Cell Viability Assay kit (Promega) according to the manufacturer's protocol. The luminescence signal of treated samples was normalized to DMSO control, and data were analyzed using a 4-parameter logistic model to calculate IC50 values.
# [3] = biological target: KRAS G12C (Homo sapiens (Human), UniProt P01116, C118A/G12C); experiment: 2 h coupled exchange assay; format: biochemical; conditions: Avg 2 h Coupled exchange IC50, 2 h compound pre-incubation, SOS-mediated nucleotide exchange
# Experimental: The term “2 h coupled exchange assay” or “20 h coupled exchange assay” as used herein refers to the assay described in the Section entitled “BIOLOGICAL EVALUATION.”
# Sequence of KRAS G12C (P01116 other isoform, or with tags, fused parts or gaps G12C/C118A): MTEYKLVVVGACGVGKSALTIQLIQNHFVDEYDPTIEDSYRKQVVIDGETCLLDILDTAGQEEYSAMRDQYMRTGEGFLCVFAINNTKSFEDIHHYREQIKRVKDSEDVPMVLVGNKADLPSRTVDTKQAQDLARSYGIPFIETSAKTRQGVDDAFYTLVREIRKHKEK
IC50 [1] [nM],IC50 [2] [nM],IC50 [3] [nM],Compound
1250,625,166,"C=C(Cl)C(=O)N1CC2(CCN(c3nc4c(c(-c5c(C)ccc6[nH]ncc56)c3C#N)CCC(C)(C)C4)C2)C1 [Example 13-3, 2-(2-(2-chloro-2-propenoyl)-2,6-diazaspiro[3.4]octan-6-yl)-7,7-dimethyl-4-(5-methyl-1H-indazol-4-yl)-5,6,7,8-tetrahydro-3-quinolinecarbonitrile]"
> 5000,1620,357,"COC/C=C/C(=O)N1CC2(CCN(c3nc4c(c(-c5c(C)ccc6[nH]ncc56)c3C#N)CCC(C)(C)C4)C2)C1 [Example 13-4, 2-(2-((2E)-4-methoxy-2-butenoyl)-2,6-diazaspiro[3.4]octan-6-yl)-7,7-dimethyl-4-(5-methyl-1H-indazol-4-yl)-5,6,7,8-tetrahydro-3-quinolinecarbonitrile]"
> 5000,> 5000,973,"C=CC(=O)N1CC2(CCN(c3nc4c(c(-c5ccccc5Cl)c3C#N)COC(C)(C)C4)C2)C1 [Example 13-5, 4-(2-chlorophenyl)-7,7-dimethyl-2-(2-(2-propenoyl)-2,6-diazaspiro[3.4]octan-6-yl)-7,8-dihydro-5H-pyrano[4,3-b]pyridine-3-carbonitrile]"
3370,218,44,"Cc1ccc2[nH]ncc2c1-c1c(C#N)c(N2CCC3(CN(C(=O)/C=C/C(F)F)C3)C2)nc2c1CCC(C)(C)C2 [Example 13-8, 2-(2-((2E)-4,4-difluoro-2-butenoyl)-2,6-diazaspiro[3.4]octan-6-yl)-7,7-dimethyl-4-(5-methyl-1H-indazol-4-yl)-5,6,7,8-tetrahydro-3-quinolinecarbonitrile]"
4240,537,67,"C=CC(=O)N1CC2(CCN(c3nc4c(c(-c5c(C)ccc6[nH]ncc56)c3C#N)CC3(CC4)CC3)C2)C1 [Example 13-11, 4′-(5-methyl-1H-indazol-4-yl)-2′-(2-(2-propenoyl)-2,6-diazaspiro[3.4]octan-6-yl)-7′,8′-dihydro-5′H-spiro[cyclopropane-1,6′-quinoline]-3′-carbonitrile]"
> 5000,157,29,"C=CC(=O)N1CC2(CCN(c3nc4c(c(-c5c(C)ccc6[nH]ncc56)c3C#N)CC(C)(C)C4)C2)C1 [Example 13-12, 6,6-dimethyl-4-(5-methyl-1H-indazol-4-yl)-2-(2-(2-propenoyl)-2,6-diazaspiro[3.4]octan-6-yl)-6,7-dihydro-5H-cyclopenta[b]pyridine-3-carbonitrile]"
> 5000,517,34,"C=CC(=O)N1CC2(CCN(c3nc4c(c(-c5c(C)ccc6[nH]ncc56)c3C#N)CC3(CC3)C4)C2)C1 [Example 13-14, 4-(5-methyl-1H-indazol-4-yl)-2-(2-(2-propenoyl)-2,6-diazaspiro[3.4]octan-6-yl)-5,7-dihydrospiro[cyclopenta[b]pyridine-6,1′-cyclopropane]-3-carbonitrile]"
> 5000,1170,163,"C=CC(=O)N1CC2(CCN(c3nc4c(c(-c5c(C)ccc6[nH]ncc56)c3C#N)COCCC4(F)F)C2)C1 [Example 13-15, 9,9-difluoro-4-(5-methyl-1H-indazol-4-yl)-2-(2-(2-propenoyl)-2,6-diazaspiro[3.4]octan-6-yl)-5,7,8,9-tetrahydrooxepino[4,3-b]pyridine-3-carbonitrile]"
> 5000,393,82,"C=CC(=O)N1CC2(CCN(c3nc4c(c(-c5c(C)ccc6cnn(C)c56)c3C#N)CC(C)(C)C4)C2)C1 [Example 13-16, 4-(1,6-dimethyl-1H-indazol-7-yl)-6,6-dimethyl-2-(2-(2-propenoyl)-2,6-diazaspiro[3.4]octan-6-yl)-6,7-dihydro-5H-cyclopenta[b]pyridine-3-carbonitrile]"
> 5000,338,64,"C=CC(=O)N1CC2(CCN(c3nc4c(c(-c5ccccc5Cl)c3C#N)CCC(c3ccnn3C)C4)C2)C1 [Example 13-19, (7R)-4-(2-chlorophenyl)-7-(1-methyl-1H-pyrazol-5-yl)-2-(2-(2-propenoyl)-2,6-diazaspiro[3.4]octan-6-yl)-5,6,7,8-tetrahydro-3-quinolinecarbonitrile|(7S)-4-(2-chlorophenyl)-7-(1-methyl-1H-pyrazol-5-yl)-2-(2-(2-propenoyl)-2,6-diazaspiro[3.4]octan-6-yl)-5,6,7,8-tetrahydro-3-quinolinecarbonitrile]"
3000,224,12,"C=CC(=O)N1CC2(CCN(c3nc4c(c(-c5ccccc5Cl)c3C#N)CC[C@@H](c3ccnn3C)C4)C2)C1 [Example 13-20, (7R)-4-(2-chlorophenyl)-7-(1-methyl-1H-pyrazol-5-yl)-2-(2-(2-propenoyl)-2,6-diazaspiro[3.4]octan-6-yl)-5,6,7,8-tetrahydro-3-quinolinecarbonitrile]"
> 5000,615,62,"C=CC(=O)N1CC2(CCN(c3nc4c(c(-c5ccccc5Cl)c3C#N)CC[C@H](c3ccnn3C)C4)C2)C1 [Example 13-21, (7S)-4-(2-chlorophenyl)-7-(1-methyl-1H-pyrazol-5-yl)-2-(2-(2-propenoyl)-2,6-diazaspiro[3.4]octan-6-yl)-5,6,7,8-tetrahydro-3-quinolinecarbonitrile]"
> 5000,280,35,"C=CC(=O)N1CC2(CCN(c3nc4c(c(-c5ccccc5F)c3C#N)CCC(c3ccnn3C)C4)C2)C1 [Example 13-26, (7R)-4-(2-fluorophenyl)-7-(1-methyl-1H-pyrazol-5-yl)-2-(2-(2-propenoyl)-2,6-diazaspiro[3.4]octan-6-yl)-5,6,7,8-tetrahydro-3-quinolinecarbonitrile|(7S)-4-(2-fluorophenyl)-7-(1-methyl-1H-pyrazol-5-yl)-2-(2-(2-propenoyl)-2,6-diazaspiro[3.4]octan-6-yl)-5,6,7,8-tetrahydro-3-quinolinecarbonitrile]"
> 5000,190,33,"C=CC(=O)N1CC2(CCN(c3nc4c(c(-c5cc(O)cc6ccccc56)c3C#N)COC(C)(C)C4)C2)C1 [Example 13-41, 4-(3-hydroxy-1-naphthalenyl)-7,7-dimethyl-2-(2-(2-propenoyl)-2,6-diazaspiro[3.4]octan-6-yl)-7,8-dihydro-5H-pyrano[4,3-b]pyridine-3-carbonitrile]"
> 5000,1440,589,"C=CC(=O)N1CC2(CCN(c3nc4c(c(-c5c(C)ccc6[nH]ncc56)c3C(=O)OC)CCC(C)(C)C4)C2)C1 [Example 13-44, methyl 7,7-dimethyl-4-(5-methyl-1H-indazol-4-yl)-2-(2-(2-propenoyl)-2,6-diazaspiro[3.4]octan-6-yl)-5,6,7,8-tetrahydro-3-quinolinecarboxylate]"
> 5000,421,148,"C=CC(=O)N1CC2(CCN(c3nc4c(c(-c5c(C)ccc6[nH]ncc56)c3C(F)F)COC(C)(C)C4)C2)C1 [Example 13-45, 1-(6-(3-(difluoromethyl)-7,7-dimethyl-4-(5-methyl-1H-indazol-4-yl)-7,8-dihydro-5H-pyrano[4,3-b]pyridin-2-yl)-2,6-diazaspiro[3.4]octan-2-yl)-2-propen-1-one]"
> 5000,442,123,"C=CC(=O)N1CC2(CCN(c3nc4c(c(-c5c(C)ccc6cnn(C)c56)c3C#N)COC(C)(C)C4)C2)C1 [Example 13-49, 4-(1,6-dimethyl-1H-indazol-7-yl)-7,7-dimethyl-2-(2-(2-propenoyl)-2,6-diazaspiro[3.4]octan-6-yl)-7,8-dihydro-5H-pyrano[4,3-b]pyridine-3-carbonitrile]"
> 5000,198,76,"C=CC(=O)N1CC2(CCN(c3nc4c(c(-c5c(C)ccc6[nH]ncc56)c3C#N)COC3(CCOCC3)C4)C2)C1 [Example 13-50, 4′-(5-methyl-1H-indazol-4-yl)-2′-(2-(2-propenoyl)-2,6-diazaspiro[3.4]octan-6-yl)-2,3,5,5′,6,8′-hexahydrospiro[pyran-4,7′-pyrano[4,3-b]pyridine]-3′-carbonitrile]"
> 5000,287,95,"C=CC(=O)N1CC2(CCN(c3nc4c(c(-c5c(C)ccc6[nH]ncc56)c3C#N)COC3(CCOC3)C4)C2)C1 [Example 13-51, (3R)-4′-(5-methyl-1H-indazol-4-yl)-2′-(2-(2-propenoyl)-2,6-diazaspiro[3.4]octan-6-yl)-4,5,5′,8′-tetrahydrospiro[furan-3,7′-pyrano[4,3-b]pyridine]-3′-carbonitrile|(3S)-4′-(5-methyl-1H-indazol-4-yl)-2′-(2-(2-propenoyl)-2,6-diazaspiro[3.4]octan-6-yl)-4,5,5′,8′-tetrahydrospiro[furan-3,7′-pyrano[4,3-b]pyridine]-3′-carbonitrile]"
